For series [1] the following is noted: 101.33 kPa, Liquid, Vibrating tube method.
Series [2] in a line: activity coefficient (dimensionless); of the first substance listed, at infinite dilution; xn = mol fraction of the nth substance listed. Particulars: 101 kPa, Liquid, Chromatography, x1 = 0.

± gives the expanded uncertainty stated by the source.

Take `CC1(C)[C@@H]2CC[C@@]1(CS(=O)(=O)[O-])C(=O)C2.CCCCCCCCCCCCCC[N+](CCCCCC)(CCCCCC)CCCCCC`: the mass density (as a rule, mass per unit of volume) amounted to 963.8 ± 0.3 kg/m3 in series [1] (298.55 K), 953.4 ± 0.3 kg/m3 in series [1] (313.45 K), 946.1 ± 0.3 kg/m3 in series [1] (323.45 K) and 939.1 ± 0.3 kg/m3 in series [1] (333.25 K).
The corresponding values for `CCCCCCCCCCCCCC[N+](CCCCCC)(CCCCCC)CCCCCC.C[C@H](O)C(=O)[O-]` [N,N,N-trihexyl-1-tetradecanaminium (2S)-2-hydroxypropanoate] are 894.8 ± 0.3 kg/m3, 885.7 ± 0.3 kg/m3, 879.9 ± 0.3 kg/m3 and 874.5 ± 0.3 kg/m3.
`CCCCCCCCCCC` [undecane] + CCCCCCCCCCCCCC[N+](CCCCCC)(CCCCCC)CCCCCC.C[C@H](O)C(=O)[O-]: the activity coefficient in series [2] (323.15 K) worked out at 1.67 ± 0.11; in series [2] (353.15 K), 1.81 ± 0.12; in series [2] (373.15 K), 1.75 ± 0.12.

The values are drawn from the NIST ThermoML archive (doi:10.1021/je500050p).
